As usually defined, the Kd is the free concentration of one partner at which half of the binding sites on the other are occupied at equilibrium, for simple one-to-one binding. A higher Kd goes with lower affinity.

Residues, ends and D or L forms follow the SMILES beside them.

The values that follow come from article PMC3433420 (PLoS ONE, 2012).

Assay [1] addresses T1, PIK3R1-NC tandem SH2 domains (Homo sapiens, UniProt P27986).
T1 construct: the tandem protein was included in our analysis with all internal amino acids linking the domains; 6X His; thioredoxin; made in house; host or cells: E. coli BL21(DE3)pLysS
Put plainly: FP saturation binding assay. Conditions: high-confidence ErbB interactions. Put shortly: (§1)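 KD values come from least-squares fits of fluorescence polarization (ex 530, em 555 nm), corrected for thioredoxin nonspecific binding and plate baseline, with outliers pruned. Fixed 10 nM labeled peptide met a 0.002–10 µM protein series for 20 min at room temperature in HEPES/KCl/Tween/DTT buffer, pH 7.8.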

The next assay concerns the target T2, VAV3 SH2 domain (Homo sapiens, UniProt Q9UKW4).
T2 construct: 6X His; thioredoxin; made in house; host or cells: BL21(DE3)pLysS E. coli
Put plainly: FP saturation binding assay. Conditions: protein VAV3, high-confidence ErbB interactions, mean of replicate hits. The method, boiled down:
as §1

T2 sequence (Q9UKW4 672-766 limits assumed): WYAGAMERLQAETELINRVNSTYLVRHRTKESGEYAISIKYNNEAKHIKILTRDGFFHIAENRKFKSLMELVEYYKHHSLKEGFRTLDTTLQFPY
T1 sequence (P27986 333-718 limits assumed): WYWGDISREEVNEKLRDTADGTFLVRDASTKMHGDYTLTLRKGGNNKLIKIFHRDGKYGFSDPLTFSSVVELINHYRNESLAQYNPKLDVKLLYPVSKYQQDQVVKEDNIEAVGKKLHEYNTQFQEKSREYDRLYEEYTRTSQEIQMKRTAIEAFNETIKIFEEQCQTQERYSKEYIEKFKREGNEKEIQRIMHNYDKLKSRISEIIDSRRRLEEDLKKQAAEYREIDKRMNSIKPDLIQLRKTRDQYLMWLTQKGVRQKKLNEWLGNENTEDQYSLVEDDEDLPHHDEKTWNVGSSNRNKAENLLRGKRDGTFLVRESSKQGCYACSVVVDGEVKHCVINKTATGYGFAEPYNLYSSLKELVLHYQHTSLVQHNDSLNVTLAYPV

Compound `CC(C)C[C@H](NC(=O)[C@H](Cc1ccc(OP(=O)(O)O)cc1)NC(=O)[C@H](CCC(=O)O)NC(=O)[C@H](CCC(=O)O)NC(=O)[C@H](C)NC(=O)[C@@H](N)CC(=O)O)C(=O)N[C@H](C(=O)N1CCC[C@H]1C(=O)N[C@@H](CCC(N)=O)C(=O)N[C@@H](CCC(N)=O)C(=O)NCC(=O)N[C@@H](Cc1ccccc1)C(=O)N[C@@H](CC(=O)O)C(=O)O)C(C)C` [ErbB2 1023 13-mer] (HELM PEPTIDE1{D.A.E.E.[O=C([C@H](Cc1ccc(OP(=O)(O)O)cc1)N[*:1])[*:2]].L.V.P.Q.Q.G.F.D}$$$$V2.0) had an equilibrium dissociation constant (Kd) in assay [1] (Protein PIK3R1-NC, FP saturation binding, mean over replicate hits) of 7.14 µM.
Turning to `CSCC[C@H](NC(=O)[C@H](CCC(=O)O)NC(=O)[C@H](CCC(=O)O)NC(=O)[C@H](Cc1ccc(OP(=O)(O)O)cc1)NC(=O)CNC(=O)[C@H](CCC(N)=O)NC(=O)[C@H](CCC(=O)O)NC(=O)[C@@H](N)CO)C(=O)N[C@@H](CCCNC(=N)N)C(=O)N[C@@H](C)C(=O)N[C@@H](Cc1ccccc1)C(=O)N[C@@H](CCC(N)=O)C(=O)N[C@@H](CC(=O)O)C(=O)O` [ErbB3 1289 13-mer] (HELM PEPTIDE1{S.E.Q.G.[O=C([C@H](Cc1ccc(OP(=O)(O)O)cc1)N[*:1])[*:2]].E.E.M.R.A.F.Q.D}$$$$V2.0), at VAV3 SH2 domain, the Kd stood at 8.4 µM.
Regarding `CSCC[C@H](NC(=O)[C@H](Cc1ccc(OP(=O)(O)O)cc1)NC(=O)CNC(=O)[C@H](CCC(=O)O)NC(=O)[C@H](CCC(=O)O)NC(=O)[C@H](CC(=O)O)NC(=O)[C@H](CC(C)C)NC(=O)[C@H](CCC(=O)O)NC(=O)CNC(=O)[C@H](CCCNC(=N)N)NC(=O)[C@@H]1CCCN1)C(=O)N[C@H](C(=O)N1CCC[C@H]1C(=O)N[C@@H](CCSC)C(=O)N[C@@H](CCCNC(=N)N)C(=O)N[C@@H](CC(=O)O)C(=O)N[C@@H](CCCCN)C(=O)N[C@@H](CC(=O)O)C(=O)O)[C@@H](C)O` [ErbB4 1150 18-mer] (HELM PEPTIDE1{P.R.G.E.L.D.E.E.G.[O=C([C@H](Cc1ccc(OP(=O)(O)O)cc1)N[*:1])[*:2]].M.T.P.M.R.D.K.D}$$$$V2.0), the Kd in assay [1] (protein PIK3R1-NC, FP, mean of replicate hits) was 5.81 µM; on VAV3 SH2 domain, 0.18 µM.
